# Source: patent US20200121666A1, “TAU PHOSPHORYLATION INHIBITORS AND METHODS FOR TREATING OR PREVENTING ALZHEIMER'S DISEASE” (THE METHODIST HOSPITAL SYSTEM, priority 2017, published 2020)
# Key:
# 3D AD model (#A5) = assay: RNA-seq canonical pathway analysis of 3D AD cultures treated with anti-Aβ drugs; assay type: cell-based, human; settings: anti-Aβ drug treatment versus DMSO
# From the text: FIG. 15. […] Pearson correlations of global gene expression profile among 2D undifferentiated control ReN cells, 3D control (G2# B2on), AD # A5 (# A5, moderate Aβ42/40 ratio ˜0.2), AD # D4 (# D4, high Aβ42/40 ratio, ˜1.4), and AD # H10 (# H10, extra high Aβ42/40 ratio, ˜1.7). Units are log CPM. b. Volcano plots show −log10(FDR) vs log FC distribution for G2# B2 (control) vs AD # A5 (AD), AD # A5 DMSO vs AD # A5 BSI (BACE inhibitor, Ly2886721), and AD # A5 DMSO vs AD # A5 GSM (gamma secretase modulator, SGSM15606) transcriptomic signatures. […] Canonical pathway analysis between G2# B2 and AD # A5 (Ingenuity pathway analysis, Qiagen). d. Analysis of common canonical pathways. The pathway analysis among G2# B2 vs AD # A5, AD # A5 DMSO vs AD # A5 BSI, and AD # A5 DMSO vs AD # A5 GSM. Activation z-scores indicate that majority of decreased pathways in AD # A5 are restored by BSI and/or GSM treatments. e. […]
# To examine the multiple single-clonal AD models, unbiased whole genome RNA-seq analyses were performed to compare gene expression profiles among the clonal AD models with different Aβ42/40 ratios, as compared to control 3D cultures and undifferentiated 2D control cells (FIG. 15a-d). […] Differential gene expression profile of 3D AD cultures were analyzed after treating anti-Aβ drugs (BACE1 inhibitor, Ly2886721; Gamma-secretase modulator (GSM), GSM15606) (FIG. 15b). […]
# [1] = test system: pTau in AD-in-a-dish model; assay: Validation of SMART-predicted compounds in the reformatted high content AD-in-a-dish model; set-up: species or system human; settings: cell-based validation of 26 purchased SMART predictions
# From the text: Twenty-two of the 38 aforementioned screening hits had LINCS data covering the perturbation profiles for at least 4 cell lines. From these 22 hits, 2 were eliminated because no known drug candidates ranked high enough based on transcriptomic similarities to these two primary hits; and 3 others were removed upon inspection of the compound properties of the predictions they made, i.e., the predicted drugs may be toxic or unfit for systematic use. Thus, the 17 primary hits shown in Table 1 were used to initiate a pilot run using the SMART framework. The cMAP algorithm^7 was used to rank all compounds in the LINCSCloud, based on the similarity of transcriptomic profiles to each of the 17 primary hits. If any compound was determined by cMAP algorithm to have a similarity score larger than 90 to at least one of the primary hits, it was identified as a hit candidate. After filtering based on pharmacology features, 85 candidates predicted by 17 primary hits (Table 1) remained; 26 of these 85 compounds were purchased for validation after analysis for pharmacology and medical practice features.
# tau phosphorylation = settings: previously reported; cited from earlier work
# [2] = test system: phospho-tau (AT8) in ReNCell VM cells carrying the APPSL mutation; assay: High-content screen of phospho-tau (AT8) staining in 3D cultured FAD neural stem cells; assay type: cell-based, human; settings: for inhibition of pTau / tau hyperphosphorylation: primary screen of 2,640 compounds, compound added from the beginning of culture, whole-well AT8 images
# From the text: FIG. 1. High-content screening. FAD-transfected neural stem cells were 3D cultured in matrigel and treated with each compound. Cells were stained with phospho-tau antibody (AT8). Images covering the whole well were taken and quantified as the readout.
# A 3D human neural culture model of AD was developed by culturing ReNCell VM cells carrying the APPSL mutation in a thin layer (50˜100 μm thick) of Matrigel. This method was then miniaturized to 96, 384, or other high content well plate formats (FIG. 1) to provide a faithful model for testing the effect of compounds on AD. However, the high-throughput screening is limited by its readout of microscopy images, which cannot be analyzed manually in large quantity.
# To enable high-throughput in vitro screening, an image-processing program was developed, based on NeuriteIQ software^17-23 (FIG. 2A), to automatically quantify tau phosphorylation from images of cultured cells. The program processes images from th e nucleus and neurite channels separately. In the nucleus channel, nuclei are detected and segmented by local maximum detection and watershed method. In the neurite channel, phospho-tau stained cells are treated as two-dimensional curvilinear structures and processed based on the local Hessian matrix^24,25, which allows the detection of center points and local directions of neurites in a field. The program reliably quantified the number of neurons with hyper-phosphorylated tau (FIG. 2B). Thus, a high-content screening system for the identification of compounds targeting the tau pathology in AD was established.
# Known drug and bioactive compounds (2,640 compounds) were selected for the initial screen from the Sigma-Aldrich LOPAC (1280), Tocriscreen Total Library (1120), and a manual selection of 240 Kinase Inhibitors. […] A few of the 38 compounds have been previously reported to inhibit tau phosphorylation in AD animal models (e.g., baicalein^26 and tretinoin^27), further validating the credibility of the screen. Most, however, are novel AD candidates.
# p-tau (pSer396/Ser404) = assay: Quantitative immunofluorescence staining in 3D AD models with high Aβ42/40 ratios; assay type: cell-based, human; settings: 5 μM for 3 weeks
# From the text: FIG. 17. Validation of primary hit candidates. Primary hit candidates were confirmed using Western blot analysis (a) and quantitative immunofluorescence staining in 3D AD models with high Aβ42/40 ratios (# HReN and # A4H1) (b). PHF1 pSer396/Ser404 tau antibody was used to detect changes in phospho tau in 3D AD # HReN cells treated with DMSO vehicle, ebselen, or leflunomide.
# In addition to MSD Mesoscale ELISA shown in FIG. 16, quantitative Western blot and immunofluorescence analysis were used to validate candidate drugs. […] Ebselen and leflunomide are compounds screened from original HCS screening of […] biologically active/FDA-approved drug library. […] Moreover, quantitative immunofluorescence staining was used to analyze p-tau changes after treating these compounds.
# [3] = test system: 3D AD cell model transcriptome; assay: Whole genome RNAseq after compound treatment versus control; assay type: cell-based, human; settings: for immune and inflammatory related pathways (5 of 6 connected to 12 down-regulated genes): after treatment versus control; for down-regulated genes in PPI subnetwork, shared by both treatments / up-regulated genes in PPI subnetwork, shared by both treatments: |log FC|>1.5 versus control
# From the text: PPI information was extracted from STRING database version 10.5 with the cutoff for confidence score at 0.4.
# Given ebselen and leflunomide in FIG. 17, an unbiased whole genome RNAseq analysis was used to obtain transcriptomic profiles after the treatment of each compound and compare them separately to control conditions. For both treatments, a subset of genes and pathways show significant change (|log FC|>1.5) in the same direction over control condition. […] These 22 genes have 102 PPI pairs among them, and there are 7 genes directly connected to APP (coding Aβ) or MAPT (coding Tau).
# It's worth noting that the enrichment of immune and inflammatory related pathway changes is consistent with the characteristics of the 3D cell model, as this system contains astrocytes, which is one of the brain innate immune cells. […] Also, neuroinflammatory pathways are highly unregulated in high Abeta42/40 lines (D4 and H10) as compared to A5 (similar to GA2) (data not shown).
structure (smiles),measurement,setting,value
COc1nc(-c2cc(C)c(NC(C)c3ccc(F)cc3)nn2)ccc1-n1cnc(C)c1 (centres unmarked) [GSM15606],enriched canonical pathways of the 3D AD model,3D AD model (#A5),significantly altered
"C1CCC(C(CC2CCCCN2)C2CCCCC2)CC1.O=C(O)/C=C\C(=O)O (centres unmarked) [Perhexiline, perhexiline maleate]",inhibition of pTau,[1],successful predictions
O=c1cc(-c2ccccc2)oc2cc(O)c(O)c(O)c12 [baicalein],tau phosphorylation in AD animal models,tau phosphorylation,inhibit
Oc1c(Cl)cc(Cl)c2cccnc12 [chloroxine],inhibition of pTau,[1],validated hits
CCC(C)[C@H]1O[C@]2(CC[C@@H]1C)C[C@@H]1C[C@@H](C/C=C(\C)[C@@H](O[C@H]3C[C@H](OC)[C@@H](O[C@H]4C[C@H](OC)[C@@H](O)[C@H](C)O4)[C@H](C)O3)[C@@H](C)/C=C/C=C3\CO[C@@H]4[C@H](O)C(C)=C[C@@H](C(=O)O1)[C@]34O)O2 (some centres unmarked) [ivermectin],inhibition of pTau / tau hyperphosphorylation,[2],almost completely inhibited
same,inhibition of pTau / tau hyperphosphorylation,[2]; listed as Ivermectin,most significant phenotype
"N=C(N)c1ccc(OCCCCCOc2ccc(C(=N)N)cc2)cc1 [pentamidine, pentamidine isethionate]",inhibition of pTau / tau hyperphosphorylation,[2],almost completely inhibited
Cc1oncc1C(=O)Nc1ccc(C(F)(F)F)cc1 [leflunomide],cellular viability and neurite networks,p-tau (pSer396/Ser404),without affecting
same,p-tau (pSer396/Ser404) accumulation,p-tau (pSer396/Ser404),robustly decreased
same,immune and inflammatory related pathways (5 of 6 connected to 12 down-regulated genes),[3],significantly down-regulated
same,"down-regulated genes in PPI subnetwork, shared by both treatments",[3],15 genes
same,"up-regulated genes in PPI subnetwork, shared by both treatments",[3],7 genes
O=c1c2ccccc2[se]n1-c1ccccc1 [ebselen],immune and inflammatory related pathways (5 of 6 connected to 12 down-regulated genes),[3],significantly down-regulated
same,"down-regulated genes in PPI subnetwork, shared by both treatments",[3],15 genes
same,"up-regulated genes in PPI subnetwork, shared by both treatments",[3],7 genes
NC1=N[C@@]2(c3cc(NC(=O)c4ccc(F)cn4)ccc3F)COC[C@H]2CS1 [Ly2886721],enriched canonical pathways of the 3D AD model,3D AD model (#A5),significantly altered
"CC[N+](CC)(CC)CCOc1ccc(/C=C/c2ccccc2)cc1 [MG624, mg 624]","tau phosphorylation, late addition","[2]; compound added after week 2, when tau phosphorylation should have already developed",significantly reduced
same,"tau phosphorylation, late addition","[2]; compound added after week 4, cells fixed and stained at week 6",significantly reduced
same,inhibition of pTau / tau hyperphosphorylation,[2],almost completely inhibited
CC1=C(/C=C/C(C)=C/C=C/C(C)=C/C(=O)O)C(C)(C)CCC1 [retinoic acid],tau phosphorylation in AD animal models,tau phosphorylation,inhibit
